Source: patent US20110230481A2, “DERIVATIVES OF TETRABROMOBENZIMIDAZOLE, A PROCESS FOR THE PREPARATION THEREOF, A PHARMACEUTICAL COMPOSITION COMPRISING THE SAME, A METHOD OF USING THE SAME, A METHOD FOR MODULATING OR REGULATING SERINE/THREONINE KINASES, AND SERINE/THREONINE KINASES MODULATING AGENT” (SELVITA S.A., priority 2009, published 2011)
≈ marks a conversion by molar mass, not a printed value.

What was measured:
[1] = test system: human acute myeloid leukemia MOLM-13 cells; test: Growth inhibition test (MTS); type: cell-based; conditions: Homo sapiens, MOLM-13; MOLM13; 72 hours; read-out: Cytotoxicity in MTS assay (ED50)
Protocol: (§1) Ten thousand cells of acute myeloid leukemia MOLM-13 were inoculated into each well of a 96-well microplate (manufactured by Corning Corp.) using RPMI 8226 medium (culture medium) containing 10% fetal calf serum (FCS). The same day, a dimethyl sulfoxide (DMSO) solution of each test compound prepared in a concentration of 10 mmol/L was further diluted with DMSO to the desired concentrations (0.1, 0.5, 1, 2.5, 5 and 10 micromol/L), and the diluted solution was added to each well. The individual wells were further cultured in 5% carbon dioxide at 37° C. for 72 hours. After completion of the culture, 10 μl MTS (3-(4,5-Dimethyl-2-thiazolyl)-5-(carboxymethoxyphenyl)-2-(4-sulfophenyl)-2H-tetrazolium, inner salt assay (CellTiter96® AQueous One Solution Cell Proliferation Assay, Promega) was added to each well, and culturing was performed in 5% carbon dioxide at 37° C. for 2 hours. Using a microplate spectrophotometer (Synergy 2 multi-mode microplate reader (BioTek)), the absorbance of each well was measured at 490 nm. The value for cells not incorporated with a test compound was designated as 100%. By comparing these values with the absorbance difference obtained at the well in which each test compound was added, the cell viability (% viability) after treatment with the test compound was calculated.

[2] = test system: human acute lymphocytic leukemia E6.1 Jurkat cells; test: Growth inhibition test (MTS); type: cell-based; conditions: Homo sapiens, 72 hours, read-out: Cytotoxicity in MTS assay (ED50)
Protocol: (§2) Twenty thousand cells of human acute lumphocytic leukemia E6.1 Jurkat were inoculated into each well of a 96-well microplate (manufactured by Corning Corp.) using RPMI 8226 medium (culture medium) containing 10% fetal calf serum (FCS). The same day, a dimethyl sulfoxide (DMSO) solution of each test compound prepared in a concentration of 10 mmol/L was further diluted with DMSO to the desired concentrations (0.1, 0.5, 1, 2.5, 5 and 10 micromol/L), and the diluted solution was added to each well. The individual wells were further cultured in 5% carbon dioxide at 37° C. for 72 hours. After completion of the culture, 10 μl MTS (3-(4,5-Dimethyl-2-thiazolyl)-5-(carboxymethoxyphenyl)-2-(4-sulfophenyl)-2H-tetrazolium, inner salt assay (CellTiter96® AQueous One Solution Cell Proliferation Assay, Promega) was added to each well, and culturing was performed in 5% carbon dioxide at 37° C. for 2 hours. Using a microplate spectrophotometer (Synergy 2 multi-mode microplate reader (BioTek)), the absorbance of each well was measured at 490 nm. The value for cells not incorporated with a test compound was designated as 100%. By comparing these values with the absorbance difference obtained at the well in which each test compound was added, the cell viability (% viability) after treatment with the test compound was calculated.

PIM2 = PIM2 (Homo sapiens, UniProt Q9P1W9); test: Radiometric kinase assay (HotSpot); conditions: for Selectivity for Pim-2 over CK2α: ratio of IC50 values
PIM1 = PIM1 (Homo sapiens, UniProt P11309); test: Radiometric kinase assay (HotSpot); conditions: for Selectivity for Pim-1 over CK2α: ratio of IC50 values
PIM3 = PIM3 (Homo sapiens, UniProt Q86V86); test: Radiometric kinase assay (HotSpot); conditions: for Selectivity for Pim-3 over CK2α: ratio of IC50 values
CK2α = CK2α (Homo sapiens, UniProt P68400); test: Radiometric kinase assay (HotSpot)
[3] = test system: human myelomonocytic, biphenotypic leukemia MV4-11 cells; test: Growth inhibition test (MTS); type: cell-based; conditions: Homo sapiens, MV4-11; MV-4-11; 72 hours; read-out: Cytotoxicity in MTS assay (ED50)
Protocol: as §1, with “human myelomonocytic, biphenotypic” for “acute myeloid”, “MV4-11” for “MOLM-13”, “Iscove's MDM” for “RPMI 8226”

Solubility in pH 7.4 = conditions: phosphate buffer
[4] = test system: human prostate adenocarcinoma PC3 cells; test: Growth inhibition test (MTS); type: cell-based; conditions: PC-3; 72 hours
Protocol: as §2, with “Two” for “Twenty”, “prostate adenocarcinoma PC3” for “acute lumphocytic leukemia E6.1 Jurkat”, “Corp.), and” for “Corp.)”, “F12K (Ham's F12:[…]” for “RPMI”, “[…] 1:1)” for “8226”

[5] = test system: human prostate carcinoma DU145 cells; test: Growth inhibition test (MTS); type: cell-based; conditions: 72 hours
Protocol: as §2, with “Two” for “Twenty”, “prostate carcinoma DU145” for “acute lumphocytic leukemia E6.1 Jurkat”, “Corp.), and” for “Corp.)”, “DMEM” for “RPMI 8226”, “innersalt” for “inner salt”

Sequence of CK2α (P68400 whole entry): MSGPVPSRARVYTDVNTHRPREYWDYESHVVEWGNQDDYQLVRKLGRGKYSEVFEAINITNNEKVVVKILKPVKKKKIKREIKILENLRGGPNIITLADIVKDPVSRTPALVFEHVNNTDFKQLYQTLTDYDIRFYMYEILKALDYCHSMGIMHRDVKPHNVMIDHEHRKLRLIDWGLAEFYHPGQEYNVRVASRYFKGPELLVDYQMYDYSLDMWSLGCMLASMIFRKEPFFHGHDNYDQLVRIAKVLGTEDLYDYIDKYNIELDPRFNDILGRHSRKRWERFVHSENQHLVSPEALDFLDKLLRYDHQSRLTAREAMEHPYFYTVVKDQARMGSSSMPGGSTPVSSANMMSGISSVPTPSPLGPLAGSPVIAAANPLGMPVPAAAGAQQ
Sequence of PIM1 (P11309 whole entry): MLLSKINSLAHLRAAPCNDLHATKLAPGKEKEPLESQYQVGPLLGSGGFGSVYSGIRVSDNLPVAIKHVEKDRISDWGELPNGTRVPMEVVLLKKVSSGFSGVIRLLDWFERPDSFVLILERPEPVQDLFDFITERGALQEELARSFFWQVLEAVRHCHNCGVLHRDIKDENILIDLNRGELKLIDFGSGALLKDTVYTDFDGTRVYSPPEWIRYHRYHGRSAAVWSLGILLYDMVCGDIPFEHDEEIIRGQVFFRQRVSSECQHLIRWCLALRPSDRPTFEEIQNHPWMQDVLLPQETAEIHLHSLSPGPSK
Sequence of PIM2 (Q9P1W9 whole entry): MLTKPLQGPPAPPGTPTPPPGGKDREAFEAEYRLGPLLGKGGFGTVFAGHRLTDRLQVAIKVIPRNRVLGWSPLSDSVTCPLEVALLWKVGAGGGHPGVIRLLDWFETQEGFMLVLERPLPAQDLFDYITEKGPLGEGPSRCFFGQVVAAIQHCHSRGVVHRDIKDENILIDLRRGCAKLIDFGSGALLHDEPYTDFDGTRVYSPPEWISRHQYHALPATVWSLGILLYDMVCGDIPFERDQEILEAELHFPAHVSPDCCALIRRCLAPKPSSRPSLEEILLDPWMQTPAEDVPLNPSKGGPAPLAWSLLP

| Structure (SMILES) | IC50 (PIM2) | Selectivity for Pim-2 over CK2α (PIM2) | IC50 (PIM1) | Selectivity for Pim-1 over CK2α (PIM1) | IC50 (PIM3) | Selectivity for Pim-3 over CK2α (PIM3) | IC50 (CK2α) | solubility at 24 h (Solubility in pH 7.4) | IC50 [1] | IC50 [2] | IC50 [3] | Cytotoxicity in MTS assay (ED50) [4] | Cytotoxicity in MTS assay (ED50) [5] |
| --- | --- | --- | --- | --- | --- | --- | --- | --- | --- | --- | --- | --- | --- |
| Brc1c(Br)c(Br)c2[nH]c(NCCCN3CCCCC3)nc2c1Br [Compound 59, 4,5,6,7-tetrabromo-N-(3-(piperidin-1-yl)propyl)-1H-benzo[d]imidazol-2-amine] | 1.49 µM | 0.6 | 0.088 µM | 9.7 | 0.189 µM | 4.5 | 0.855 µM | – | 3.51 µM | 4.41 µM | 2.81 µM | – | – |
| Nc1ccc(Nc2nc3c(Br)c(Br)c(Br)c(Br)c3[nH]2)cc1 [Compound 86, N1-(4,5,6,7-tetrabromo-1H-benzo[d]imidazol-2-yl)benzene-1,4-diamine] | 1.55 µM | 0.5 | 0.547 µM | 1.3 | 0.68 µM | 1.1 | 0.734 µM | – | 8.81 µM | 8.27 µM | 5.81 µM | – | – |
| Brc1c(Br)c(Br)c2[nH]c(Nc3ccccc3)nc2c1Br [Compound 79, 4,5,6,7-tetrabromo-N-phenyl-1H-benzo[d]imidazol-2-amine] | > 20 µM | – | 1.51 µM | 1.3 | 2.96 µM | 0.7 | 1.96 µM | – | 5.96 µM | 9.06 µM | 4.4 µM | – | – |

Molecules with a lower IC50 (PIM2), results first:

| IC50 (PIM2) | Selectivity for Pim-2 over CK2α (PIM2) | IC50 (PIM1) | Selectivity for Pim-1 over CK2α (PIM1) | IC50 (PIM3) | Selectivity for Pim-3 over CK2α (PIM3) | IC50 (CK2α) | solubility at 24 h (Solubility in pH 7.4) | Structure (SMILES) | IC50 [1] | IC50 [2] | IC50 [3] | Cytotoxicity in MTS assay (ED50) [4] | Cytotoxicity in MTS assay (ED50) [5] |
| --- | --- | --- | --- | --- | --- | --- | --- | --- | --- | --- | --- | --- | --- |
| 0.0903 µM | 1.2 | 0.0091 µM | 12.0 | 0.0076 µM | 14.4 | 0.11 µM | 72 µM (≈ 37.6 µg/mL) | NCC(O)CNc1nc2c(Br)c(Br)c(Br)c(Br)c2[nH]1 (centres unmarked) [Compound 90, 1-(4,5,6,7-tetrabromo-1H-benzo[d]imidazol-2-ylamino)-3-aminopropan-2-ol] | 6.91 µM | 5.78 µM | 2.12 µM | – | – |
| 0.199 µM | 1.9 | 0.0052 µM | 74.2 | 0.0202 µM | 19.1 | 0.386 µM | – | NCCCCNc1nc2c(Br)c(Br)c(Br)c(Br)c2[nH]1 [Compound 61, N-(4-aminobutyl)-4,5,6,7-tetrabromo-1H-benzo[d]imidazol-2-amine] | 5.95 µM | 7.92 µM | 4.43 µM | – | – |
| 0.823 µM | 0.5 | 0.0871 µM | 5.1 | 0.0158 µM | 28.3 | 0.448 µM | – | Brc1c(Br)c(Br)c2[nH]c(NCCCn3ccnc3)nc2c1Br [Compound 65, N-(3-(1H-imidazol-1-yl)propyl)-4,5,6,7-tetrabromo-1H-benzo[d]imidazol-2-amine] | 6.88 µM | > 10 µM | > 10 µM | >10 µM | 7.72 µM |
